In PMC9826768, “New polychlorinated bibenzyls from Rhododendron minutiflorum” (Natural Products and Bioprospecting, 2023):

Legend:
α-glucosidase = α-glucosidase inhibitory activity (PNPG method); assay type: biochemical; conditions: mean ± SE; acarbose as positive control
Procedure: In order to evaluate the insecticidal activities of all the isolated compounds, their toxicities on D. citri Kuwayama were tested.
According to the previously reported method, all the isolated compounds were screened for α-glucosidase inhibitory activity.

[1] = test system: Diaphorina citri Kuwayama; experiment: Insecticidal activity (toxicity) against the Asian citrus psyllid; assay type: in vivo; conditions: for LD50: against D. citri, during 6 days after treatment (calculated using observations on day 6), Probit analysis; for corrected mortality rate of citrus psyllid: 4th day after the test started, compound concentration higher than 50 mg/L
Procedure: To avoid accidental injury, all the D. citri were carefully collected and cultured. The insecticidal activities of eight compounds were evaluated using methods described in the literature with slightly modified. […] Finally, mortality was calculated every 24 h starting on the second day of the trial.

Compound	IC50 (α-glucosidase)	LD50 [1]	corrected mortality rate of citrus psyllid [1]
Oc1c(Cl)cc(CCc2c(Cl)cc(Cl)c(O)c2Cl)cc1Cl [Compound 1, 2,4,6,3′,5′-pentachloro-3,4′-dihydroxybibenzyl]	82.8 ± 4.99 µM	–	–
Oc1cc(CCc2cc(Cl)c(O)c(Cl)c2)ccc1Cl [Compound 4, 4,3′,5′-trichloro-3,4′-dihydroxybibenzyl]	17.9 ± 0.74 µM	–	–
CC(C)=CCc1c(O)cc(O)cc1CCc1ccccc1 [Compound 7, 3,5-dihydroxyl-2-(3′-methyl-2′-butenyl)-bibenzyl]	56.7 ± 1.42 µM	48.64 mg/L	–
Oc1cc(CCc2cc(Cl)c(O)c(Cl)c2)c(Cl)cc1Cl [Compound 3, 4,6,3′,5′-tetrachloro-3,4′-dihydroxybibenzyl]	60.4 ± 1.54 µM	48.50 mg/L	–
CC(C)=CCc1ccc(CCc2ccc(O)cc2)cc1O [Compound 8, 3,4″-dihydroxyl-4-(3′-methyl-2′-butenyl)-bibenzyl]	65.4 ± 2.04 µM	–	–
COc1cc(O)c(CCC(C)(C)O)c(CCc2ccccc2)c1 [Compound 6, 3-hydroxyl-5-methoxy-2-(3′-hydroxyl-3′-methylbutyl)-bibenzyl]	76 ± 12 µM	16.20 mg/L	higher than 50%
O=C1CCC[C@@H]2[C@H]3CCCN4CCC[C@@H](CN12)[C@@H]34 [Matrine, matrine, reference compound]	–	11.86 mg/L	–
COc1cc(CCc2cc(Cl)c(O)c(Cl)c2)ccc1Cl [Compound 5, 4,3′,5′-trichloro-4′-hydroxyl-3-methoxybibenzyl]	62.7 ± 6.87 µM	17.02 mg/L	higher than 50%
Oc1c(Cl)cc(CCc2ccc(Cl)c(O)c2Cl)cc1Cl [Compound 2, 2,4,3′,5′-tetrachloro-3,4′-dihydroxybibenzyl]	–	27.15 mg/L	higher than 50%
